# Measured values reported in the METLIN SMRT retention time set (Domingo-Almenara et al. 2019).
# Assay: gradient 5% acetonitrile 3 min, to 50% in 2 min, to 85% in 15 min, held 3 min, 100 µL/min
# Conditions: column: Zorbax Extend-C18 2.1 x 50 mm; eluents: water / acetonitrile, 0.1% formic acid
# How it was run: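 Data were gathered over 3 months by HPLC coupled to a quadrupole time-of-flight mass spectrometer, operated in positive and negative ionization mode. Mixtures of ~100 pure standards ran on a Zorbax Extend-C18 column (2.1 × 50 mm, 1.8 μm) at 100 μL/min, with water and acetonitrile each containing 0.1% formic acid and dead and dwell volumes of 40 μL and 900 μL. Retention time was read from adduct peaks picked by computer and checked manually.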
row,Structure (SMILES),RP-LC retention time [s]
1,COc1ccc(C)cc1NC(=O)Cn1c(=O)c(CCC(=O)NCC(C)C)nc2ccccc21,852
2,O=C1c2cccc([N+](=O)[O-])c2C(=O)N1c1nc(-c2ccccc2)cs1,958
3,O=C(Nc1ccc2ncnc(N3CCCCC3)c2c1)c1cccs1,670
4,CCn1c(=O)c(C)nc2cc(-c3noc(-c4cc(OC)cc(OC)c4)n3)ccc21,894
5,CCOC(=O)c1cn(Cc2ccc(C)cc2)c2nc(C)ccc2c1=O,861
6,CCOc1ccc(OCC)c(NC(=O)CN2C(=O)C(C)(C)c3ccccc32)c1,1090
7,Cc1ccnc(N2CCCC(C(=O)NCc3ccc(C)o3)C2)n1 (stereo not given),694
8,CN(C)Cc1ccc(S(=O)(=O)n2ccc(/C=C/C(=O)NO)c2)cc1,936
9,O=C(NCCn1c(=O)n(Cc2ccc(F)cc2)c2cccnc21)C1CCCC1,782
10,COc1cccc(N2CC(C)Cn3c2nc2c3c(=O)n(Cc3c(F)cccc3Cl)c(=O)n2C)c1 (stereo not given),1080
11,CCn1c(CCC(=O)NCc2ccc(C)cc2)nc2ccccc2c1=O,796
12,CCOc1ccc(Cl)cc1S(=O)(=O)N1CCC(C(=O)NCCOC)CC1,753
13,COc1ccc(C(C)NC(=O)C2CCCN(c3nccnc3Sc3ccc(C)cc3)C2)cc1 (stereo not given),1090
14,CCCCOc1ccc(-c2ccc(=O)n(Cc3nc(-c4ccccc4Br)no3)n2)cc1,1260
15,Cc1ccn2cc(-c3ccc(NC(=O)Nc4ccc(F)cc4)cc3)nc2n1,654
16,Cn1ncc2c3ccccc3n(CC(=O)NCCCN3CCC(N4CCCCC4)CC3)c2c1=O,527
17,O=c1n(Cc2cccc(F)c2)nc2c(-c3nc(-c4cccc(F)c4)no3)cccn12,1030
18,O=c1[nH]c2ccc(NCc3cccc(Cl)c3Cl)cc2[nH]1,728
19,Cn1c(=O)c(-c2ccc(C(=O)NCC3CCCO3)cc2)nc2ccccc21 (stereo not given),724
20,CCN1C(=O)CCc2cc(NC(=O)c3ccn(CC)n3)ccc21,701
21,Cc1cc(=O)n(CC(=O)Nc2c(C)cccc2C)c(N2CCOCC2)n1,612
22,Cn1ncc2c3ccccc3n(CCCC(=O)NCCCN3CCN(c4ccccc4)CC3)c2c1=O,672

row,Structure (SMILES),RP-LC retention time [s]
1,CN(CCc1ccc(Cl)c(Cl)c1)CC(O)COc1ccc(NS(C)(=O)=O)cc1 (stereo not given),715
2,CCc1nc2cc(N3CCC(C(=O)NCc4cccnc4)CC3)cnc2nc1CC,598
3,CC1=C(c2ccc(C)cc2)S(=O)(=O)N=C1N1CCCC1,816
4,CCN1c2ccccc2C(=O)NC12CCN(C(=O)NCc1ccc(F)cc1)CC2,769
5,CCOc1ccccc1CNC(=O)C1CCN(S(=O)(=O)c2ccc3c(c2)NC(=O)CO3)CC1,757
6,CC(C)NC(=O)c1ccc(OCC2CCN(C(=O)Cc3cccs3)CC2)cc1,822
7,Cn1cc(-c2cc3n(n2)CCC(=O)N3CCCC(=O)NCc2ccco2)c2ccccc21,775
8,CCCN1CCN(c2cc(C(=O)O)c3cc(NS(=O)(=O)c4ccc(C)cc4C)ccc3n2)CC1,937
9,COc1cccc(NC(=O)Nc2ccc3c(c2)CCN3S(=O)(=O)c2ccccc2)c1,933
10,Cc1ccc(S(=O)(=O)N2CCCN(C)c3ccccc32)cc1C,603
11,O=C(NC1(c2nc(-c3ccccc3)no2)CCCCC1)c1cccc(Cl)c1,1230
12,COC(=O)c1ccccc1NC(=O)c1c(O)c2cccc3c2n(c1=O)CC3,1170
13,O=C(Cn1c(=O)n(C2CCCCC2)c2ncccc21)NCc1cccnc1,603
14,Cc1ccc(C)c(S(=O)(=O)N2CCN(c3ccc(-n4nc(C)c(C)c4C)nn3)CC2)c1,995
15,COc1ccc(Nc2nc(-c3nnn(-c4cccc(Cl)c4)c3C)ns2)cc1OC,963
16,O=c1oc2cc(O)c(O)cc2c2c1CCC2,641
17,Cc1nc2c(-c3ccc(F)cc3)c(C)nn2c(C)c1CCC(=O)N1CCN(c2ccccn2)CC1,682
18,O=C(Nc1ccc2c(c1)CN(C(=O)COc1ccccc1)CCO2)C1CC1,752
19,CCc1nc2cc(-c3noc(Cc4cccc(F)c4)n3)ccc2o1,1050
20,Cn1nc(-c2nnc(-c3ccccc3F)o2)c2c1CCN(S(=O)(=O)c1ccc(C#N)cc1)C2,894
21,Cc1c(-c2ccnc(N3CCOCC3)n2)cnc2nc(-c3ccccc3)nn12,885
22,CCOC(=O)c1sc(NCCc2c[nH]c3ccc(OC)cc23)nc1-c1ccccc1,1040

row,Structure (SMILES),RP-LC retention time [s]
1,COc1cccc(N2CCN(c3ccnc(SCC(=O)Nc4ccccc4F)n3)CC2)c1,789
2,COc1ccccc1-c1nnc(NC(=O)C2CC(=O)N(c3ccc(F)cc3)C2)o1 (stereo not given),652
3,O=C(Cn1cccc1-c1nnc(C2CC2)o1)NCc1ccc2c(c1)OCO2,749
4,CC(C)(C)n1nnnc1C1CC2(CCOCC2)C(=O)N1CCc1c[nH]c2ccccc12 (stereo not given),770
5,CCC(=O)N1c2ccc(S(=O)(=O)CCC(=O)N3CCN(c4ccc(OC)cc4)CC3)cc2CC1C (stereo not given),785
6,O=C(Cn1c(=O)oc2ccccc21)NCC1CCN(C(=O)c2cc3ccccc3o2)CC1,738
7,O=C(CNC(=O)C1COc2ccccc2O1)NCCc1c[nH]c2ccccc12 (stereo not given),780
8,CC1CCc2cc(F)cc3c(=O)c(C(=O)O)cn1c23 (stereo not given),806
9,O=C(NCCc1ccccc1)N1CCCC1c1nc(-c2ccccc2)no1 (stereo not given),922
10,CC(=O)N1CCc2cc(N3CC(C(=O)NC(C)c4ccccn4)CC3=O)ccc21 (stereo not given),904
11,O=C(Nc1cnn(-c2ncc(N3CCSCC3)cn2)c1)NC1CCCCC1,759
12,Cc1cccc(CN2CCC(CNC(=O)Nc3cn(C)c(=O)c4ccccc34)CC2)c1,603
13,CCCc1cc(SCC(=O)Nc2nccs2)ncn1,692
14,Cc1ccc(CNC(=O)N2CCCC(C)(C(=O)NCc3ccc(C)cc3)C2)cc1 (stereo not given),947
15,Cc1noc2nc(C)n(CC(=O)Nc3ccc(F)cc3F)c(=O)c12,767
16,O=C(Nc1ccccc1)N1CCc2nnc(C3CC3)n2CC1,596
17,Cc1ccc(S(=O)(=O)Cc2cccc(-c3nc(-c4cccc(-c5ccnn5C)c4)no3)c2)cc1,1140
18,Cc1cc2c(cc1S(=O)(=O)N1CCCC1C(=O)Nc1ccc(F)cc1)OC(C)C(=O)N2 (stereo not given),775
19,CCCn1cc2c3c(cccc31)CN(C(=O)Nc1cc(OC)c(OC)c(OC)c1)CC2,970
20,CC(=O)N1CCc2cc(CNS(=O)(=O)Cc3ccccc3)ccc21,750
21,COc1ccccc1N1CCN(c2cc(SCC(=O)Nc3cccc(Cl)c3F)ncn2)CC1,1270
